{"source": "ChEMBL document CHEMBL5465560", "about": "“Selectivity Literature for EUbOPEN Chemogenomic Library” (2024)", "key": {"[1]": {"target": "CDK6/Cyclin D (Homo sapiens) (UniProt P24385+P30281+Q00534+P30279)", "assay": "Selectivity interaction (Upstate Kinase Profiler service (Millipore)) EUB0000056c CDK6", "type": "protein-complex assay", "details": "at 1 µM"}, "[2]": {"target": "T1, Casein kinase I isoform alpha-like (Homo sapiens) (UniProt Q8N752)", "T1 sequence (whole entry)": "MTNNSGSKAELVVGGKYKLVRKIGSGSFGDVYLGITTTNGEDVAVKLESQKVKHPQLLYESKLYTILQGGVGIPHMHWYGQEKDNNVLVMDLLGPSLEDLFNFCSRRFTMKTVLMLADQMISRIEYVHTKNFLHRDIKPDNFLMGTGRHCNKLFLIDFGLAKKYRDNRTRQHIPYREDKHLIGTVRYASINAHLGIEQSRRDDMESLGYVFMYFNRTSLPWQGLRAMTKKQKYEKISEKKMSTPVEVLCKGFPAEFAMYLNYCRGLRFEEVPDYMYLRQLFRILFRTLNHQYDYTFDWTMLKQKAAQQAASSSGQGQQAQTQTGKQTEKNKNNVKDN", "assay": "Selectivity interaction (KinomeScan (DiscoverX)) EUB0000655a CSNK1A1L", "details": "at 10 µM"}, "[3]": {"target": "DNA-dependent protein kinase catalytic subunit (Homo sapiens) (UniProt P78527)", "sequence (P78527 whole entry)": "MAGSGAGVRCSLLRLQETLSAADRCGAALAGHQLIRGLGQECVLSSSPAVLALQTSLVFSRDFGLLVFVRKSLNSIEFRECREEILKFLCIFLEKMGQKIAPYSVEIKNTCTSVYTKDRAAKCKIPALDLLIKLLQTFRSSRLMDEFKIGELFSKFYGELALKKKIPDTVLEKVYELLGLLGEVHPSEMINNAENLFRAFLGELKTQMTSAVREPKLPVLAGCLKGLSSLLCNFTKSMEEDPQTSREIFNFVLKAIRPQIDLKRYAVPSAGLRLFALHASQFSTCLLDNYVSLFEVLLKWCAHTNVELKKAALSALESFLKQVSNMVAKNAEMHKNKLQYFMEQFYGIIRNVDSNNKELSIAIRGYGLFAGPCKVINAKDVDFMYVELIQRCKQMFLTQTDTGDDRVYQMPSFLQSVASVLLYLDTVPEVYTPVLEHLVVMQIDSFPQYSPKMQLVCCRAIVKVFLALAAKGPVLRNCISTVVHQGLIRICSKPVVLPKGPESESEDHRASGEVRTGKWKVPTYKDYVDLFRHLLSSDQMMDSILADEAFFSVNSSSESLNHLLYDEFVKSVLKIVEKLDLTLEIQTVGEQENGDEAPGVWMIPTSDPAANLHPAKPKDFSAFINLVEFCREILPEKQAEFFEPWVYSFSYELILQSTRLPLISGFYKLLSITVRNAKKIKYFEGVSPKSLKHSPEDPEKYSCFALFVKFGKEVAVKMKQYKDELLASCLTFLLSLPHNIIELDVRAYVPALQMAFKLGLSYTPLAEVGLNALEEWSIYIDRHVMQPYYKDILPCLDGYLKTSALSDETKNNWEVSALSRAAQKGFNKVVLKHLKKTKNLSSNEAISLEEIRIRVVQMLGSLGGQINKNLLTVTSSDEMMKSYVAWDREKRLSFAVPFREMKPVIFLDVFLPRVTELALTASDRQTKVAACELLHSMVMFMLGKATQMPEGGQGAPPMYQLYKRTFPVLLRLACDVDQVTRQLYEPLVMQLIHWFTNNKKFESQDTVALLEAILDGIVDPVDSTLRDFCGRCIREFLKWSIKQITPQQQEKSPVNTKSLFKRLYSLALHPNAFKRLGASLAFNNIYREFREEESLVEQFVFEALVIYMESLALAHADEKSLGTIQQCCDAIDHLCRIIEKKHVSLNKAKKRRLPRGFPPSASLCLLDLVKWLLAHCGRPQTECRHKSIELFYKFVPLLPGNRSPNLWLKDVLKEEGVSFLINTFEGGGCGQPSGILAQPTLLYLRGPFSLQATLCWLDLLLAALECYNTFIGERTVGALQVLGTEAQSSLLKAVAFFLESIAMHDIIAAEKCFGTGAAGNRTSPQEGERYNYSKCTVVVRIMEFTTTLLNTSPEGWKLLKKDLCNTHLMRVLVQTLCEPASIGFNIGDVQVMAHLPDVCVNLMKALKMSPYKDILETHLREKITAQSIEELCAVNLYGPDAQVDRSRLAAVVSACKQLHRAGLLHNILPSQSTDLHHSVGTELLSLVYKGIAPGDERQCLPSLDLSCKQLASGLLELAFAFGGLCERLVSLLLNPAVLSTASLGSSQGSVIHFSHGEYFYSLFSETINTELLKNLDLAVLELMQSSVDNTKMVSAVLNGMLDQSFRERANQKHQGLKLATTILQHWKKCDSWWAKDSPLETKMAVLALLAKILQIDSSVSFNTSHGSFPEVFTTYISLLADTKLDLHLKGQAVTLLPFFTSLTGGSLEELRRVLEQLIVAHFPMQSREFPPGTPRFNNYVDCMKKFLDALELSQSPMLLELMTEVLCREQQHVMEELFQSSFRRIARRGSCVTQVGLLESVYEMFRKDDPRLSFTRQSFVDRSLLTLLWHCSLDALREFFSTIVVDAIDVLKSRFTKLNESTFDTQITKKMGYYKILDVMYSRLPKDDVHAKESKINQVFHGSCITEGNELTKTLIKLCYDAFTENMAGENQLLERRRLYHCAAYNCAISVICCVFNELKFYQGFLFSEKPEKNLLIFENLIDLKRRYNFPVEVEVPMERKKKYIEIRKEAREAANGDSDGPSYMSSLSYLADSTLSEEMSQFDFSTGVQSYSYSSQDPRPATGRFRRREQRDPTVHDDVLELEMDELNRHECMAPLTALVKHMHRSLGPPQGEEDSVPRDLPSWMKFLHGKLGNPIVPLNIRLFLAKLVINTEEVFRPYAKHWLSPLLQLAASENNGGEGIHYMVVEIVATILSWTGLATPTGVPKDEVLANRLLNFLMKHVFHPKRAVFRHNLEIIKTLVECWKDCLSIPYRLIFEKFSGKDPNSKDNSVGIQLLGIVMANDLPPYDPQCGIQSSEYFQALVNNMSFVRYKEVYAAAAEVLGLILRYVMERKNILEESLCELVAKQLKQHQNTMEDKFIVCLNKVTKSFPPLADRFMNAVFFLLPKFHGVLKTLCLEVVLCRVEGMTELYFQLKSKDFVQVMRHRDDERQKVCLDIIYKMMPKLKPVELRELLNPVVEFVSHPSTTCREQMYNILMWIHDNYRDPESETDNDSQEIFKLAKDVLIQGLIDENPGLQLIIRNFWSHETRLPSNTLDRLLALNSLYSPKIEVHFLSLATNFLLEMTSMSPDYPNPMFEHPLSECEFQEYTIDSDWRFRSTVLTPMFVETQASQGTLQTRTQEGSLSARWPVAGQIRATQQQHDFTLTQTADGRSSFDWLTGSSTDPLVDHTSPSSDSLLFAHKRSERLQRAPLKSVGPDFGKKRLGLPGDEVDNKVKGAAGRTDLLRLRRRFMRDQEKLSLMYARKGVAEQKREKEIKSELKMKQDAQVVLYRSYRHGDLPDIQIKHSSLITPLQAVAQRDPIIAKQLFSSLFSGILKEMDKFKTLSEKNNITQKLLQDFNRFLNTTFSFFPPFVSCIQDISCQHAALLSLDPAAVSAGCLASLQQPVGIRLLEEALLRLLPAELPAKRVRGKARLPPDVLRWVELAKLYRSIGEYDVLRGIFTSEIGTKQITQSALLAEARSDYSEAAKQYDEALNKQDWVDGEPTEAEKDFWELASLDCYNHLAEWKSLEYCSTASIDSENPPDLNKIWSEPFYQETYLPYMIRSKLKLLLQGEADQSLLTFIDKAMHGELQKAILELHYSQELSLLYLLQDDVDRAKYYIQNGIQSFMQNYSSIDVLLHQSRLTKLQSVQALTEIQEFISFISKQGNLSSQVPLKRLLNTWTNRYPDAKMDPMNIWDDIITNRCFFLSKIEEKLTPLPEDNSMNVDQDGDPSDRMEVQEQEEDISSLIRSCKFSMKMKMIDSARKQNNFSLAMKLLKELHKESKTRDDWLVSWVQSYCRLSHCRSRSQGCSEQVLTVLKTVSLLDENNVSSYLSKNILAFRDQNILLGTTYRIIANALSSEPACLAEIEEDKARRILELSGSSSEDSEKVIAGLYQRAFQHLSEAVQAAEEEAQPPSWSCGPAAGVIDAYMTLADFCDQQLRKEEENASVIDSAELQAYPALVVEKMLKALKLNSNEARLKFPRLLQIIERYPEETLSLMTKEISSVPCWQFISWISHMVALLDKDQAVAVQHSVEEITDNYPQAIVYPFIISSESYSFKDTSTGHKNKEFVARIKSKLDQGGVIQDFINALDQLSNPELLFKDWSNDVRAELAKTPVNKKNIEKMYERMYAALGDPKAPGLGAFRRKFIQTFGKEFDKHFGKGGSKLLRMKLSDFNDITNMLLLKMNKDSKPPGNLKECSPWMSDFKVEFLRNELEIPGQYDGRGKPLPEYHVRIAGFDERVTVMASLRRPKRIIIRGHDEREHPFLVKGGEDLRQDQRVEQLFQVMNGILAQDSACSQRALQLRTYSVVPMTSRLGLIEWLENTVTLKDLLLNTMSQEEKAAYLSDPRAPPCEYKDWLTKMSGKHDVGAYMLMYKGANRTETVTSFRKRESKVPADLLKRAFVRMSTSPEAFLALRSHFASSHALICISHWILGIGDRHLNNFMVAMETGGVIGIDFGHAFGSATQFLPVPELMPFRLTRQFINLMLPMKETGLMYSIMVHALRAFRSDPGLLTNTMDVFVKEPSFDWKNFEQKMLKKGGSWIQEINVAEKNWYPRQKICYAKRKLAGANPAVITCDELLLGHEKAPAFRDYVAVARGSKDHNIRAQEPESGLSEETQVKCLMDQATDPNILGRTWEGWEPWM", "assay": "Selectivity interaction (ProQinase) EUB0000171b PRKDC"}, "[4]": {"target": "T2, Testis-specific serine/threonine-protein kinase 3 (Homo sapiens) (UniProt Q96PN8)", "T2 sequence (whole entry)": "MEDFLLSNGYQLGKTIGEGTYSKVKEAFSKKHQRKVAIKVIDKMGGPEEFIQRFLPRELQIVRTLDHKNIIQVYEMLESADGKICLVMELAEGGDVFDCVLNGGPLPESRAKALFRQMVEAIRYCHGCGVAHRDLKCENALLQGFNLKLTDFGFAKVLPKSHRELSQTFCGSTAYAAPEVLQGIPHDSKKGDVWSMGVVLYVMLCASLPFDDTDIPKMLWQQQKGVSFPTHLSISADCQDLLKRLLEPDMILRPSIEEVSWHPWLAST", "assay": "Selectivity interaction (KinomeScan (DiscoverX)) EUB0001079a TSSK3", "details": "at 1 µM"}, "[5]": {"target": "RAC-alpha serine/threonine-protein kinase (Homo sapiens, UniProt P31749)", "assay": "Selectivity interaction (KinomeScan (DiscoverX)) EUB0000666a AKT1", "details": "at 10 µM"}, "[6]": {"target": "Calcium/calmodulin-dependent protein kinase kinase 2 (Homo sapiens) (UniProt Q96RR4)", "assay": "Selectivity interaction (KinomeScan (DiscoverX)) EUB0000666a CAMKK2", "details": "at 10 µM"}, "[7]": {"target": "RAC-beta serine/threonine-protein kinase (Homo sapiens) (UniProt P31751)", "assay": "Selectivity interaction (Kinase panel (Z-LYTE Assay)) EUB0001632a AKT2", "details": "at 10 µM"}, "[8]": {"target": "Non-receptor tyrosine-protein kinase TYK2 (Homo sapiens, UniProt P29597)", "assay": "Selectivity interaction (Kinase panel (Z-LYTE Assay)) EUB0001632a TYK2", "details": "at 10 µM"}, "[9]": {"target": "T3, Mitogen-activated protein kinase kinase kinase 3 (Homo sapiens) (UniProt Q99759)", "T3 sequence (whole entry)": "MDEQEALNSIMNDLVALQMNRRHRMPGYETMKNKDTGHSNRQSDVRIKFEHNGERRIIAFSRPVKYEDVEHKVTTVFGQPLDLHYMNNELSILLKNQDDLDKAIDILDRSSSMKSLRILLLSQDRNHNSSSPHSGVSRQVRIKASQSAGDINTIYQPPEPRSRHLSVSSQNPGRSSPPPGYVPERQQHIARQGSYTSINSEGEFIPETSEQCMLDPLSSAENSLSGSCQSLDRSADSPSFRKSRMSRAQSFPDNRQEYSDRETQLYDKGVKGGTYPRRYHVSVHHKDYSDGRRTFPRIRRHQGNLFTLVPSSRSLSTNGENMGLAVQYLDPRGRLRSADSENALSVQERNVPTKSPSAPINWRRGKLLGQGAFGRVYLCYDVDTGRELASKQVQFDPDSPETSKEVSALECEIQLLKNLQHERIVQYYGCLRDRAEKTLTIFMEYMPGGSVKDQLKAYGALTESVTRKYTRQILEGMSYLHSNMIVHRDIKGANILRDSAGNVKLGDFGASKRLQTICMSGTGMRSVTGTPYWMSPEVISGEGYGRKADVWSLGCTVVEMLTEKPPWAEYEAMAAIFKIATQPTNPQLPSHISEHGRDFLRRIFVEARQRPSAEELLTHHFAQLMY", "assay": "Selectivity interaction (ActivX KiNativ screen (kinase selectivity in THP-1 cell lysates)) EUB0000639a MAP3K3", "type": "subcellular", "details": "lysate, at 0.04 µM"}, "[10]": {"target": "Serine/threonine-protein kinase WNK1 (Homo sapiens) (UniProt Q9H4A3)", "assay": "Selectivity interaction (ActivX KiNativ screen (kinase selectivity in THP-1 cell lysates)) EUB0000639a WNK1", "type": "subcellular", "details": "lysate, at 0.04 µM"}, "[11]": {"target": "Tyrosine-protein kinase Srms (Homo sapiens) (UniProt Q9H3Y6)", "sequence (Q9H3Y6 whole entry)": "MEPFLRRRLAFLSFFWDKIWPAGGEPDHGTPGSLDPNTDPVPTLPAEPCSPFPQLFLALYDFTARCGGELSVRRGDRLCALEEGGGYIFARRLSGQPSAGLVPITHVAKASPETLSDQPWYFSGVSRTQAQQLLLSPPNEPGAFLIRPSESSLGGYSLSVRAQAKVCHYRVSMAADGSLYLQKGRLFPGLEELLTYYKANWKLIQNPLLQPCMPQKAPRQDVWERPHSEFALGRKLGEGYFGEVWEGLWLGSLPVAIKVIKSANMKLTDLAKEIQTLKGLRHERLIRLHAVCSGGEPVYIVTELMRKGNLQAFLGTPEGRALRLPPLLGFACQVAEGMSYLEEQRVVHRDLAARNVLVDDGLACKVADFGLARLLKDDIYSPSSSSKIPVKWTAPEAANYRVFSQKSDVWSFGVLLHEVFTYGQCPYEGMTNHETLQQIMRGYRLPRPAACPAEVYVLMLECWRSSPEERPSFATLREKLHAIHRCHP", "assay": "Selectivity interaction (SelectScreen profiling (Invitrogen)) EUB0000607a SRMS", "details": "at 2 µM"}, "[12]": {"target": "Ribosomal protein S6 kinase beta-1 (Homo sapiens, UniProt P23443)", "sequence (P23443 whole entry, looked up)": "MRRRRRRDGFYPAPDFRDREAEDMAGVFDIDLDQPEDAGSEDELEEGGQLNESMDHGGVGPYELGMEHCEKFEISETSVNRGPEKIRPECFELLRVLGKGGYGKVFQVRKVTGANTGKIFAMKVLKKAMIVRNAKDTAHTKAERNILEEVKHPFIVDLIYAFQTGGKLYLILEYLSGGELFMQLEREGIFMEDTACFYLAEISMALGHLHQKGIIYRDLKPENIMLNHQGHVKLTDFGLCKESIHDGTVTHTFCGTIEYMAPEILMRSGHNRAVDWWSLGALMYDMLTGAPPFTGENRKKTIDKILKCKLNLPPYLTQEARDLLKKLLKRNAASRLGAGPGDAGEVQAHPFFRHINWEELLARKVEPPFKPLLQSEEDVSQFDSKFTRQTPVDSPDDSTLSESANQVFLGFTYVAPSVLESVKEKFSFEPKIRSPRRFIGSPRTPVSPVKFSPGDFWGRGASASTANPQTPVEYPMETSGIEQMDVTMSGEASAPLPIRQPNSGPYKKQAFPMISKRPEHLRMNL", "assay": "Selectivity interaction (Kinase screening (Upstate/Millipore)) EUB0000604a RPS6KB1"}}}
{"compound": "Cc1ccc(-c2ccc3c(ccc4sc5c(c43)NC[C@@H](C)NC5=O)n2)cn1", "values": [{"measurement": "% of inhibition", "setting": "[1]", "result": 5, "unit": "%"}]}
{"compound": "CN(C)CCOc1ccc(-c2nc(-c3ccncc3)c(-c3ccc4c(c3)CC/C4=N\\O)[nH]2)cc1", "values": [{"measurement": "% of control", "setting": "[2]", "result": 88, "unit": "%"}]}
{"compound": "C=CC(=O)Nc1cccc(C(=O)Nc2ccc(Nc3cc(-c4[nH]c(SC)nc4C)ccn3)cc2)c1", "values": [{"measurement": "% of control", "setting": "[3]; at 1 µM", "result": 92, "unit": "%"}, {"measurement": "% of control", "setting": "[3]; at 5 µM", "result": 103, "unit": "%"}]}
{"compound": "Nc1cnc(N2CCc3cc(S(=O)(=O)Nc4c(F)cc(Cl)cc4F)cc(N4CCCC4=O)c32)nc1", "note": "[TP-020n]", "values": [{"measurement": "% of control", "setting": "[4]", "result": 100, "unit": "%"}]}
{"compound": "O=C(NOC[C@H](O)CO)c1ccc(F)c(F)c1Nc1ccc(I)cc1F", "values": [{"measurement": "% of control", "setting": "[5]", "result": 81, "unit": "%"}, {"measurement": "% of control", "setting": "[6]", "result": 100, "unit": "%"}]}
{"compound": "Cn1cc(-n2cnc3c(NCc4nc5cc(Cl)c(Cl)cc5[nH]4)nc(N4CCOCC4)nc32)cn1", "values": [{"measurement": "% of control", "setting": "[7]", "result": -2.38, "unit": "%"}, {"measurement": "% of control", "setting": "[8]", "result": 2.01, "unit": "%"}]}
{"compound": "CC[C@@H]1[C@H](F)C(=O)N[C@@H]1COc1nccc2cc(C(N)=O)c(OC)cc12", "note": "[ZIMLOVISERTIB]", "values": [{"measurement": "% of inhibition", "setting": "[9]", "result": 8.3, "unit": "%"}, {"measurement": "% of inhibition", "setting": "[10]", "result": -7.4, "unit": "%"}]}
{"compound": "CNC(=O)Nc1ccc(-c2nc(N3CC4CCC(C3)O4)c3cnn(C4CCC5(CC4)OCCO5)c3n2)cc1", "values": [{"measurement": "% of inhibition", "setting": "[11]", "result": 7, "unit": "%"}]}
{"compound": "Cc1cnc(Nc2ccc(F)cc2Cl)nc1-c1c[nH]c(C(=O)N[C@H](CO)c2cccc(Cl)c2)c1", "values": [{"measurement": "% of inhibition", "setting": "[12]", "result": 18, "unit": "%"}]}
